Test [1] has as its target T1, Mandelate racemase (Pseudomonas putida, UniProt P11444).
T1 sequence (P11444 whole entry): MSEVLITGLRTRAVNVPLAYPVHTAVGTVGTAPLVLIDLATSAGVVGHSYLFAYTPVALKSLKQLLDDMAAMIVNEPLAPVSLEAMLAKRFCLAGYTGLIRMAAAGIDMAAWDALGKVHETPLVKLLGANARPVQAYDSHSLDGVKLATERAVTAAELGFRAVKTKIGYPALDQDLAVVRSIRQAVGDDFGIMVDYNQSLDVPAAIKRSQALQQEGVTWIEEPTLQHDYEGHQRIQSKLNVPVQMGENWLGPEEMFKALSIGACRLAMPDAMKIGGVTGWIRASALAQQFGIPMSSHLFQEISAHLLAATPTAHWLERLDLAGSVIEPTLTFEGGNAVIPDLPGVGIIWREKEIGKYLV
Briefly: Inhibitory activity against Mandelate racemase at pH 6.3 at 25 degree C.

In test [2] the target is T1, Mandelate racemase. Briefly: Inhibitory activity against Mandelate racemase at pH 7.5 at 25 degree C.
For test [3], the target named is T1, Mandelate racemase. Kind of test: Inhibitory activity against Mandelate racemase at pH 8.7 at 25 degree C.

Our source for the Ki values is ChEMBL document CHEMBL1141065, “Inhibition of mandelate racemase by the substrate-intermediate-product analogue 1,1-diphenyl-1-hydroxymethylphosphonate” (Bioorg Med Chem Lett, 2005).

In general, Ki refers to a dissociation constant, usually derived from enzyme kinetics or from competition with a known ligand. Low readings indicate tighter binding, high ones weaker binding.

In the case of `O=P(O)(O)C(O)(c1ccccc1)c1ccccc1`, the Ki on Mandelate racemase [1] was 5.91 mM; on Mandelate racemase [2], 1.41 mM; on Mandelate racemase [3] it was 6.93 mM.
